How the values were obtained:
[1] = tested on: human breast cancer cells; details: immunodeficient mice; cited from earlier work
Hep3B cells = test: Hep3B anchorage dependent colony formation assay; type: cell-based; details: two concentrations; 10% FBS; 1 week
Source text: Colonies>50 cells were scored in three independent experiments, each with triplicate dishes.

IGF-II [2] = target: T1, IGF-II (Homo sapiens, UniProt P01344); test: SPR affinity of DX-2647 (IgG captured on anti-human Fc chip), IGF-II; details: 1:1 binding model
T1 construct: IGF-II (amino acids 1-67)
T1 sequence (P01344 25-91): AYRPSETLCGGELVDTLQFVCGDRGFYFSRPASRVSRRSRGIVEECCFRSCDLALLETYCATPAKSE

IGF-IIE [3] = target: T2, IGF-IIE (Homo sapiens, UniProt P01344); test: SPR affinity of DX-2647 (IgG captured on anti-human Fc chip), IGF-IIE; details: 1:1 binding model
T2 construct: the construct comprising amino acids 1-104, which encompass the E domain
T2 sequence (P01344 25-128): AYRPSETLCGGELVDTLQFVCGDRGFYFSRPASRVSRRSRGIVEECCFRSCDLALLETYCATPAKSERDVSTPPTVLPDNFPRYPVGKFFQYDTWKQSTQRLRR

IGF-I = IGF-I (Homo sapiens, UniProt P05019); test: SPR affinity of DX-2647, IGF-I; details: 1:1 binding model
Sequence of IGF-I (P05019 49-118 limits assumed, species assumed): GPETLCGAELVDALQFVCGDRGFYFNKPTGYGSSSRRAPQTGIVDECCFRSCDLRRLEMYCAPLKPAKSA
Source text: IGF-II and the related growth factor, IGF-I, share 70% homology at the amino acid level.

IGF-II [4] = target: T1, IGF-II; test: SPR assays of DX-2647 binding to IGF-II complexed with receptors/IGFBPs
Source text: (§1) While the IGF-IR and IR-A are the principal mediators of the biological activity of IGF-II, the protein can bind with high affinity to a number of other proteins that include a family of six serum IGF-binding proteins (IGFBP 1-6), and the cell-surface mannose-6-phosphate receptor (IGF-IIR).

IGF-IIE [5] = target: T2, IGF-IIE; test: SPR assays of DX-2647 binding to IGF-IIE complexed with receptors/IGFBPs; details: FIGS. 5A and 5B
Source text: as §1

[6] = tested on: HepG2 human hepatoma cells; test: HepG2 anchorage-independent colony formation in soft agar; type: cell-based; details: 10% FCS, two weeks
Method: Cells were seeded in growth medium plus 10% FCS in soft agar in the presence of increasing concentrations of antibody. Colonies>50 cells were counted after two weeks. […]

[7] = tested on: human SKUT-1 myosarcoma cell; test: Cisplatin (CDDP)-induced cytotoxicity in SKUT-1 cells (CellTitreBlue); type: cell-based; details: 20% FCS, 48 hours
Colo205 cells = test: Colo205 cell proliferation in complete medium containing 10% FBS; type: cell-based; details: 2 μM, 4 days
Method: The plate was placed in a 37° C. incubator with 5% CO2 for 4 days. Proliferation was measured by CellTiter 96Aqueous One Solution Reagent (Promega). […] Colo205 cells have two cell populations in culture vessels.

[8] = tested on: IGF-II induced Colo205 cell proliferation; test: IGF-II induced Colo205 cell proliferation in serum free medium; type: cell-based; details: 2 nM IGF-II, 96 h
Method: In this experiment, cells were cultured in serum free medium containing 2 nM IGF-II. […] Neutralizing IGF-II antibody (R&D Systems) was used at 333 nM as a positive control. […] IGF-II neutralizing antibody from R&D at 333 nM was used as a positive control. The plate was placed in a 37° C. incubator with 5% CO2 for 4 days. Proliferation was measured by CellTiter 96Aqueous One Solution Reagent (Promega).

[9] = tested on: IGF-II-induced IGF-1R phosphorylation in HepG2 cells; test: IGF-II-induced IGF-1R phosphorylation in HepG2 cells (IP/WB); type: cell-based; details: 10 min
Method: (§2) After being washed twice with ice-cold PBS containing 1 mM sodium orthovanadate, cells were lysed and immunoprecipitated with anti-IGF-IR antibody. Immunoprecipitated proteins were resolved in a 4-12% Bis-tris gel, and transferred to a PVDF membrane. The membrane was probed with anti-phospho-IGF-IR (p-IGF-1R) antibody first, and then stripped and re-probed with anti-IGF-IR antibody for detection of total IGF-1R proteins.

[10] = tested on: IGF-II-induced IGF-1R phosphorylation in Hep3B cells; test: IGF-II-induced IGF-1R phosphorylation in Hep3B cells (IP/WB); type: cell-based
Method: as §2

[11] = tested on: IGF-IR phosphorylation in Colo205 cells; test: IGF-IR phosphorylation in Colo205 cells; type: cell-based
Source text: Upon ligand binding, IGF-1R undergoes autophosphorylation on tyrosine residues of the two β-subunits.

[12] = tested on: IGF-I induced IGF-IR phosphorylation; test: IGF-I induced IGF-IR phosphorylation in Hep3B cells (IP/WB); type: cell-based; details: 10 nM DX-2647
Method: as §2

[13] = tested on: autocrine IGF-II induced IGF-1R phosphorylation in Hep3B cells; test: Autocrine (endogenous) IGF-II induced IGF-1R phosphorylation in Hep3B cells (IP/WB); type: cell-based; details: 10 nM, 48 h serum free
Method: Hep3B cells synthesize and secrete IGF-II which in turn binds IGF-1R and induces IGF-1R phosphorylation in an autocrine fashion. The autocrine IGF-II induced IGF-1R phosphorylation can be detected by IP/WB analysis after 48 h serum starvation of cells. […] To perform the experiments, Hep3B cells were seeded and cultured for 24 h. […] After being washed twice with ice-cold PBS containing 1 mM sodium orthovanadate, cells were lysed and immunoprecipitated with anti-IGF-IR antibody. Immunoprecipitated proteins were resolved in a 4-12% Bis-tris gel, and transferred to a PVDF membrane. The membrane was probed with anti-phospho-IGF-IR (p-IGF-1R) antibody first, and then stripped and re-probed with anti-IGF-IR antibody for detection of total IGF-1R proteins.

HepG2 cells = test: HepG2 anchorage dependent colony formation; type: cell-based; details: 1 nM; 10% FBS; 7 days
Method: HepG2 cells were seeded into a 6-well plate at 1000 cells/well in 2 ml of culture medium containing 10% FBS. […] Isotype control IgG (Ctrl. IgG) was used at 100 nM. After incubation cells were fixed and stained with crystal violet blue. Five pictures were taken randomly from each well and data were analyzed using the MetaMorph software. The results are summarized graphically in FIG. 10.

pegvisomant: PEGylated analog of human growth hormone, 191 amino acid residues, acting as GH receptor antagonist
growth of human breast cancer cells grown as xenografts [1]: inhibits the growth

DX-2647: IGF II/IGF IIE inhibitory antibody germlined from 566A-M0064-F02 parental clone; SEQ ID NO: 59 and 60
inhibition of colony formation of Hep3B cells (Hep3B cells): inhibited colony formation in a dose-dependent manner
ka IGF-II (IGF-II [2]): 1.06 E6 M-1s-1
kd IGF-II (IGF-II [2]): 2.38 E-5 s-1
ka IGF-IIE (IGF-IIE [3]): 2.06 E6 M-1s-1
kd IGF-IIE (IGF-IIE [3]): less than 2 E-5 s-1
ka IGF-I (IGF-I): 5.8e+06 M⁻¹ s⁻¹
kd IGF-I (IGF-I): 0.1 s⁻¹
ability to bind IGF-II complexed with the IGFBPs assayed (IGF-II [4]; FIGS. 5A and 5B): inhibited
blocking of IGF-II binding to all three cell-surface receptors for IGF-II (IGF-II [4]; FIGS. 5A and 5B): blocks the binding
binding to IGFBP-1 alone (IGF-II [4]; Fc-captured antibody, FIG. 5A): does not bind
binding to free IGF-II (IGF-II [4]; Fc-captured antibody, FIG. 5A): binds free IGF-II
binding to pre-formed complex of IGF-II and IGFBP-1 (IGF-II [4]; Fc-captured antibody, FIG. 5A): does not bind
ability to bind IGF-IIE complexed with the IGFBPs assayed (IGF-IIE [5]): inhibited
blocking of IGF-IIE binding to all three cell-surface receptors for IGF-II (IGF-IIE [5]): blocks the binding
inhibition of HepG2 colony formation in soft agar [6]: strongly inhibited
IC50 ([6]; ±0.74 standard error, read-out: mean IC50, anchorage-independent growth of HepG2 cells): 1.5 nM
enhancement of cisplatin (CDDP)-induced cellular cytotoxicity [7]: potently enhanced
inhibition of Colo205 proliferation in complete growth medium (Colo205 cells): significantly inhibited
inhibition of IGF-II induced Colo205 cell proliferation [8]: inhibited
lowest concentration showing maximum potency in inhibiting IGF-II stimulated Colo205 proliferation ([8]; 1 nM to 100 nM tested): 10 nM
inhibition of IGF-II-induced IGF-1R phosphorylation ([9]; 0.3 nM DX-2647, IGF-II 2.6 nM): Partial inhibition
inhibition of IGF-II-induced IGF-1R phosphorylation ([9]; 3 nM DX-2647, IGF-II 2.6 nM): complete inhibition
inhibition of IGF-II-induced IGF-1R phosphorylation ([10]; 0.1 nM DX-2647): partial inhibition
inhibition of IGF-II-induced IGF-1R phosphorylation ([10]; 1 nM DX-2647): complete inhibition
effective concentration for inhibition of IGF-IR phosphorylation [11]: 10 nM
inhibition of IGF-I induced IGF-IR phosphorylation [12]: failed to show significant inhibition
inhibition of autocrine IGF-II induced IGF-1R phosphorylation [13]: significant inhibitory effect
inhibition of colony-forming ability of HepG2 cells (HepG2 cells): significantly inhibited

Source: US20110165145A1, “IGF-II/IGF-IIE BINDING PROTEINS” (priority 2008, published 2011)
